# No end group written: not given here.
# What was measured:
# [1] = tested on: hematopoietic stem cell adhesion factors (Sdf-1a, KitI, Angpt1) present in osteoblasts; assay: expression of hematopoietic stem cell adhesion factors in osteoblasts, real-time quantitative PCR; assay type: cell-based, mouse; conditions: 10 nM peptide for 3 days; compared to osteoblasts (control) not treated with peptides; fold change
# Description: All mice used in the experiment were 6 to 8 weeks old mice, C57BL/6 mice, and purchased from Jackson Laboratory (Bar Harbor, Me., USA). NPY (21-28) (SEQ ID NO: 1), NPY (24-31) (SEQ ID NO: 2), NPY (29-36) (SEQ ID NO: 3), NPY D25 (21-28) (SEQ ID NO: 4), NPY D26 (21-28) (SEQ ID NO: 5), NPY D25, 26 (21-28) (SEQ ID NO: 6), NPY (21-36) (Osteopep2) (SEQ ID NO: 7) were prepared from Anygen. Full length NPY (SEQ ID NO: 8) was purchased from Bachem. 10 nM of each peptide was diluted in each medium and injected for in vitro experiments. The NPY D^25(21-28) refers to a peptide in which arginine, the fifth amino acid of the amino acid sequence of NPY (21-28), is modified to D-type, the NPY D^26(21-28) refers to a peptide in which the sixth amino acid histidine is modified to D-form, and the D^25,26(21-28) refers to a peptide in which both the fifth and sixth amino acids are modified to D-form, respectively.
# Four to six weeks old C57BL/6 mice were sacrificed after anesthesia, and then tibias and femurs were dissected. Bone marrow was harvested from tibias and femurs and single cell suspensions were obtained using a 40 μm cell strainer (Becton-Dickinson LAβware, Franklin Lakes, N.J.). Approximately […] were dispensed into 75-cm 2 flasks containing mesenchymal stem cells Stimulatory Supplements with antibiotics (Stem Cell Technologies, Inc) and MesenCult™ MSCBasal medium. The cells were incubated for 1 week and further incubated for 3 weeks with StemXVivo Osteogenic/Adipogenic Base Media (R & D systems) supplemented with StemXVivo Osteogenic supplement (20×) and penicillin-streptomycin (100×) for differentiation into osteoblasts.
# Real-time quantitative PCR was used to measure expression levels of hematopoietic stem cell adhesion factors (Sdf-1a, KitI, Angpt1) present in osteoblasts. Total RNA was extracted from cell eluate and bone marrow cells using the RNeasy Plus mini kit (Qiagen, Korea, Ltd), and cDNAs were synthesized from 5 μg total RNA using a kit in Clontech (Mountain View, Calif.). In addition, using a Corbett research RG-6000 real-time PCR instrument, Real-time quantitative PCR was performed at 95° C. for 10 minutes; at 95° C., for 10 seconds; at 58° C., for 15 seconds; at 72° C. for 20 seconds as one cycle, and 40 cycles were repeated.
# First, bone marrow was harvested from 4 to 6 weeks old C57BL6 mice, and mesenchymal stem cells (BM-MSCs) in bone marrow were collected, and then cultured for 3 weeks in osteoblast differentiation induction medium for the differentiation into osteoblasts. After 28 days, each peptide was treated with 10 nM for 3 days, and bone cells were collected and examined for expression levels of three adhesion factors by real-time quantitative PCR. Osteopep2 and its parent NPY were used as positive controls.
# [2] = tested on: osteoclasts in bone marrow; assay: TRAP staining of osteoclasts in bone marrow of osteoporosis animal models; assay type: in vivo, mouse; conditions: OVX mice, 50 μg/kg i.p. twice a day for 4 weeks; compared to PBS
# Description: (§1) To make an osteoporosis model, 10-18 12 weeks old female mice per group underwent ovarian ablation. A week later, 50 μg/kg of NPY(21-28), NPY D^25(21-28), NPY D^26(21-28), NPY D^25,26(21-28), Osteopep2, NPY and 100 μl of PBS(Gibco) were intraperitoneally administered twice a day for 4 weeks at 12 hour intervals. Alendronate (Sigma), used as a competitive drug, was intraperitoneally administered once a week for 4 weeks at a dose of 50 μg/kg. As a control group, only Sham model of osteoporosis was performed by subcutaneous dissection of female mouse. Mice were placed in experimental groups using the Block randomization method, and all mouse experiments were approved through the Kyungpook National University Institutional Animal Care and Use Committee.
# The femurs were separated from the mice and fixed in 4% paraformaldehyde for 24 hours, and tissue was decalcified in 10% EDTA for 5 weeks. It was then dehydrated with a series of diluted alcohols, paraffinized, and prepared into […] paraffin sections.
# For TRAP staining, sections were deparaffinized, stained with 1.33 mM Fast Red Violet LB Salt (Sigma-Aldrich) in 50 mM sodium acetate (pH 5.0) containing 225 μM Naphthol AS-MX phosphate (Sigma-Aldrich, St Louis, Mo., USA), 0.84% N, N-dimethylformamide (Sigma-Aldrich) and 50 mM sodium tartrate, and incubated for 30 minutes. After incubation, the sections were washed with distilled water and counterstained with 1% methyl green.
# Histomorphometric analysis was performed using the OsteoMeasure program (Extensive interactive Bone Histomorphometry Analysis System).
# After the last administration at 4 weeks of NPY (21-28), the femurs were separated from the mice and the number of osteoclasts in the bone marrow was measured by TRAP staining.
# After the last administration at 4 weeks of NPY D^25(21-28), NPY D^26(21-28), and NPY D^25,26(21-28), the femurs were separated from the mice and the number of osteoclasts in the bone marrow was measured by TRAP staining.
# [3] = tested on: animal models of osteoporosis; assay: Micro CT bone density in animal models of osteoporosis; assay type: in vivo, mouse; conditions: OVX mice, 50 μg/kg i.p. twice a day for 4 weeks; femur microCT; compared to PBS
# Description: as §1, with “Committee. The femurs were separated from the mouse and refrigerated in 80% ethanol, and in order to measure change of bone density, the bone volume/total volume and trabecular thickness were measured by analyzing the area between 0.7 mm and 2.3 mm from the growth plate baseline with the Quantum FX microCT Imaging System. Femurs were separated from mice after the last administration of NPY (21-28) at 4 weeks. To determine the change of bone density, bone density (bone volume/total volume) and bone tissue thickness (trabecular thickness) were measured with the Quantum FX microCT Imaging System. Femurs were separated from mice after the last administration of NPY D^25(21-28), NPY D^26(21-28), and NPY D^25,26(21-28) at 4 weeks. To determine the change of bone density, bone density (bone volume/total volume) and bone tissue thickness (trabecular thickness) were measured with the Quantum FX microCT Imaging System.” for “Committee.”
Substance,"expression levels of Sdf-1a, KitI, and Angpt1 in osteoblasts [1]",number of TRAP positive osteoclasts in bone marrow (Number of osteoclast/Bone surface) [2],osteoclast surface (Osteoclast surface/Bone surface) [2],bone tissue thickness (trabecular thickness) [3],percentage of bone density (BV/TV) [3]
"NPY (24-31): recombinant peptide consisting of eight amino acids of NPY, SEQ ID NO: 2 (LRHYINLI; synthetic neuropeptide Y fragment (24-31))",decreased only in osteoblasts treated with NPY (21-28),,,,
"NPY (29-36): recombinant peptide consisting of eight amino acids of NPY, SEQ ID NO: 3 (NLITRQRY; ends and bridges not checked)",decreased only in osteoblasts treated with NPY (21-28),,,,
"NPY: full length neuropeptide Y purchased from Bachem, used as positive control [reference compound]",,reduced,reduced,increased,increased
